Structures are written as SMILES.

The target of one assay is T1, recombinant 15-PGDH (Homo sapiens, UniProt P15428).
T1 sequence (P15428 1-266): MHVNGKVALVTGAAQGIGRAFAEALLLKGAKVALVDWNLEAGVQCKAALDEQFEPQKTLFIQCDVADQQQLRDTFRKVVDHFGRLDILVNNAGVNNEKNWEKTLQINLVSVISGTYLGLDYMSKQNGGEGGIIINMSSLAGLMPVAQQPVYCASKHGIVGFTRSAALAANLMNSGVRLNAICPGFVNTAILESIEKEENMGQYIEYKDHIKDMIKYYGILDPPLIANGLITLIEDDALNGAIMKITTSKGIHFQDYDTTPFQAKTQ
The assay can be described thus: IC50 for inhibiting enzymatic activity of recombinant 15-PGDH in an in vitro assay. Format: biochemical. The note with it: Enzyme Inhibitor IC50 (nM) at 5 nM 15-PGDH, recombinant human 15-PGDH at 5 nM, in vitro.
For the compound `CCCC[S+]([O-])c1sc2nc(-c3nccs3)cc(-c3ccc(C(=O)NCCO)cc3)c2c1N` (stereo not drawn) [SW 212831, 4-(3-amino-2-(butylsulfinyl)-6-(thiazol-2-yl)thieno[2,3-b]pyridin-4-yl)-N-(2-hydroxyethyl)benzamide], the half-maximal inhibitory concentration (IC50) worked out at 4 nM.
Still for that read-out and setting: the result for `CCCC[S+]([O-])c1sc2nc(-c3nccs3)cc(-c3ccc(COC(=O)NCCN(C)C)cc3)c2c1N` (stereo not drawn) [SW 212834, 4-(3-amino-2-(butylsulfinyl)-6-(thiazol-2-yl)thieno[2,3-b]pyridin-4-yl)benzyl (2-(dimethylamino)ethyl)carbamate] reads 3.3 nM; that for `C=CCNC(=O)COc1ccc(-c2cc(-c3nccs3)nc3sc([S+]([O-])CCCC)c(N)c23)cc1` (stereo not drawn) [SW 212835, N-allyl-2-(4-(3-amino-2-(butylsulfinyl)-6-(thiazol-2-yl)thieno[2,3-b]pyridin-4-yl)phenoxy)acetamide], 4.2 nM; that for `CCCC[S+]([O-])c1sc2nc(-c3nccs3)cc(-c3ccc(CC(=O)OC)cc3)c2c1N` (stereo not drawn) [SW 213150, Methyl 2-(4-(3-amino-2-(butylsulfinyl)-6-(thiazol-2-yl)thieno[2,3-b]pyridin-4-yl)phenyl)acetate], 4 nM.
Still for that read-out and setting: the result for `CCCC[S+]([O-])c1sc2nc(-c3nccs3)cc(-c3ccc(COCCO)cc3)c2c1N` (stereo not drawn) [SW 213153, 2-((4-(3-amino-2-(butylsulfinyl)-6-(thiazol-2-yl)thieno[2,3-b]pyridin-4-yl)benzyl)oxy)ethan-1-ol] reads 2 nM; that for `CCCC[S+]([O-])c1sc2nc(-c3nccs3)cc(-c3cnc(OC)n3C)c2c1N` (stereo not drawn) [SW 213155, 2-(butylsulfinyl)-4-(2-methoxy-1-methyl-1H-imidazol-5-yl)-6-(thiazol-2-yl)thieno[2,3-b]pyridin-3-amine], 19 nM; that for `CCCC[S+]([O-])c1sc2nc(-c3ncc(C)s3)cc(-c3cnc(C)n3C)c2c1N` (stereo not drawn) [SW 213208, 2-(butylsulfinyl)-4-(1,2-dimethyl-1H-imidazol-5-yl)-6-(5-methylthiazol-2-yl)thieno[2,3-b]pyridin-3-amine], 7.5 nM.
Same read-out and setting: the result for `CCCC[S+]([O-])c1sc2nc(-c3nccs3)cc(-c3ccc(CNC(=O)NCCO)cc3)c2c1N` (stereo not drawn) [SW 213209, 1-(4-(3-amino-2-(butylsulfinyl)-6-(thiazol-2-yl)thieno[2,3-b]pyridin-4-yl)benzyl)-3-(2-hydroxyethyl)urea] reads 2.8 nM.
In the case of `CCCC[S+]([O-])c1sc2nc(-c3nccs3)cc(-c3ccc(CNC(=O)CN(C)C)cc3)c2c1N` (stereo not drawn) [SW 213210, N-(4-(3-amino-2-(butylsulfinyl)-6-(thiazol-2-yl)thieno[2,3-b]pyridin-4-yl)benzyl)-2-(dimethylamino)acetamide], the IC50 worked out at 5 nM.
Still for that read-out and setting: the result for `CCCC[S+]([O-])c1sc2nc(-c3nccs3)cc(-c3ccc(CNC(=O)COC)cc3)c2c1N` (stereo not drawn) [SW 213211, N-(4-(3-amino-2-(butylsulfinyl)-6-(thiazol-2-yl)thieno[2,3-b]pyridin-4-yl)benzyl)-2-methoxyacetamide] reads 2.9 nM.
On the same count and under the same terms, the result for `CCCC[S+]([O-])c1sc2nc(-c3nccs3)cc(-c3ccnn3C)c2c1N` (stereo not drawn) [SW 217780, 2-(butylsulfinyl)-4-(1-methyl-1H-pyrazol-5-yl)-6-(thiazol-2-yl)thieno[2,3-b]pyridin-3-amine] reads 3.1 nM; that for `CCCC[S+]([O-])c1sc2nc(-c3nccs3)cc(-c3cnnn3C)c2c1N` (stereo not drawn) [SW 217782, 2-(butylsulfinyl)-4-(1-methyl-1H-1,2,3-triazol-5-yl)-6-(thiazol-2-yl)thieno[2,3-b]pyridin-3-amine], 5.4 nM.
On the same count and under the same terms, the result for `CCCC[S+]([O-])c1sc2nc(-c3nccs3)cc(-c3cocn3)c2c1N` (stereo not drawn) [SW 217936, 2-(butylsulfinyl)-4-(oxazol-4-yl)-6-(thiazol-2-yl)thieno[2,3-b]pyridin-3-amine] reads 2.2 nM; that for `CCCC[S+]([O-])c1sc2nc(-c3nccs3)cc(-c3nc(C)cs3)c2c1N` (stereo not drawn) [SW 217937, 2-(butylsulfinyl)-4-(4-methylthiazol-2-yl)-6-(thiazol-2-yl)thieno[2,3-b]pyridin-3-amine], 1.8 nM; that for `CCCC[S+]([O-])c1sc2nc(-c3nccs3)cc(-c3scnc3C)c2c1N` (stereo not drawn) [SW 217938, 2-(butylsulfinyl)-4-(4-methylthiazol-5-yl)-6-(thiazol-2-yl)thieno[2,3-b]pyridin-3-amine], 2.1 nM.
With `CCCC[S+]([O-])c1sc2nc(-c3nccs3)cc(-c3ocnc3C)c2c1N` (stereo not drawn) [SW 217939, 2-(butylsulfinyl)-4-(4-methyloxazol-5-yl)-6-(thiazol-2-yl)thieno[2,3-b]pyridin-3-amine], the concentration for half-maximal inhibition (IC50) came to 4.5 nM.
On the same count and under the same terms, the result for `COCCC[S+]([O-])c1sc2nc(-c3nccs3)nc(-c3ccccc3)c2c1N` (stereo not drawn) [SW 217995, 6-((3-methoxypropyl)sulfinyl)-4-phenyl-2-(thiazol-2-yl)thieno[2,3-d]pyrimidin-5-amine] reads 3 nM; that for `COCC[S+]([O-])c1sc2nc(-c3nccs3)nc(-c3ccccc3)c2c1N` (stereo not drawn) [SW 217996, 6-((2-methoxyethyl)sulfinyl)-4-phenyl-2-(thiazol-2-yl)thieno[2,3-d]pyrimidin-5-amine], 3.4 nM.
On the same count and under the same terms, the result for `Nc1c([S+]([O-])c2ccccc2)sc2nc(-c3nccs3)cc(-c3ccc(OCCO)cc3)c12` (stereo not drawn) [SW 217997, 2-(4-(3-amino-2-(phenylsulfinyl)-6-(thiazol-2-yl)thieno[2,3-b]pyridin-4-yl)phenoxy)ethan-1-ol] reads 12 nM; that for `CCCC[S+]([O-])c1sc2nc(-c3nccs3)cc(-c3ccc(OCCF)cc3)c2c1N` (stereo not drawn) [SW 217998, 2-(butylsulfinyl)-4-(4-(2-fluoroethoxy)phenyl)-6-(thiazol-2-yl)thieno[2,3-b]pyridin-3-amine], 3.2 nM.
On the same count and under the same terms, the result for `CCCC[S+]([O-])c1sc2nc(-c3cccs3)cc(-c3ccccc3)c2c1NC(C)=O` (stereo not drawn) [SW 218030, N-(2-(butylsulfinyl)-4-phenyl-6-(thiophen-2-yl)thieno[2,3-b]pyridin-3-yl)acetamide] reads 6890 nM; that for `CCCC[S+]([O-])c1sc2nc(-c3cccs3)cc(-c3ccccc3)c2c1NC(=O)OC` (stereo not drawn) [SW 218031, methyl (2-(butylsulfinyl)-4-phenyl-6-(thiophen-2-yl)thieno[2,3-b]pyridin-3-yl)carbamate], 1380 nM.
Take `Nc1c(C(=O)N2CCCCC2)sc2nc(-c3cccs3)cc(-c3ccccc3)c12` [SW 218331, (3-amino-4-phenyl-6-(thiophen-2-yl)thieno[2,3-b]pyridin-2-yl)(piperidin-1-yl)methanone]: the IC50 stood at 41 nM.
In the case of `CCCNS(=O)(=O)c1sc2nc(-c3cccs3)cc(-c3ccccc3)c2c1N` [SW 218332, 3-amino-4-phenyl-N-propyl-6-(thiophen-2-yl)thieno[2,3-b]pyridine-2-sulfonamide], the IC50 is 113 nM.
Still for that read-out and setting: the result for `CCOC[S+]([O-])c1sc2nc(-c3nccs3)cc(-c3cnc(C)n3C)c2c1N` (stereo not drawn) [SW 218398, 4-(1,2-dimethyl-1H-imidazol-5-yl)-2-((ethoxymethyl)sulfinyl)-6-(thiazol-2-yl)thieno[2,3-b]pyridin-3-amine] reads 9.1 nM; that for `CCCC[S+]([O-])c1sc2nc(-c3cccs3)cc(-c3ccccc3)c2c1O` (stereo not drawn) [SW 218399, 2-(butylsulfinyl)-4-phenyl-6-(thiophen-2-yl)thieno[2,3-b]pyridin-3-ol], 135 nM.
The same measure, in the same setting: the result for `Nc1c(S(=O)(=O)N2CCCCC2)sc2nc(-c3cccs3)cc(-c3ccccc3)c12` [SW 218400] reads more than 100 nM; that for `CCCC[S+]([O-])c1sc2nc(-c3nccs3)cc(-c3c(C)ncn3C)c2c1N` (stereo not drawn) [SW 218475, 2-(butylsulfinyl)-4-(1,4-dimethyl-1H-imidazol-5-yl)-6-(thiazol-2-yl)thieno[2,3-b]pyridin-3-amine], 3.4 nM.
On the same count and under the same terms, the result for `CCCC[S+]([O-])c1sc2nc(-c3nccs3)cc(-c3cnc(CC)n3C)c2c1N` (stereo not drawn) [SW 218476, 2-(butylsulfinyl)-4-(2-ethyl-1-methyl-1H-imidazol-5-yl)-6-(thiazol-2-yl)thieno[2,3-b]pyridin-3-amine] reads 2 nM.
For `CCCC[S+]([O-])c1sc2nc(-c3nccs3)cc(-c3ncn(C)c3C)c2c1N` (stereo not drawn) [SW 218477, 2-(butylsulfinyl)-4-(1,5-dimethyl-1H-imidazol-4-yl)-6-(thiazol-2-yl)thieno[2,3-b]pyridin-3-amine], the IC50 came out at 3.8 nM.
Same read-out and setting: the result for `CCCC[S+]([O-])c1sc2nc(-c3nccs3)cc(-c3cnc(C)n3C3CC3)c2c1N` (stereo not drawn) [SW 218478, 2-(butylsulfinyl)-4-(1-cyclopropyl-2-methyl-1H-imidazol-5-yl)-6-(thiazol-2-yl)thieno[2,3-b]pyridin-3-amine] reads 2.4 nM; that for `Nc1c([S+]([O-])C2CCCCC2)sc2nc(-c3cccs3)cc(-c3ccccc3)c12` (stereo not drawn) [SW 218520, 2-(cyclohexylsulfinyl)-4-phenyl-6-(thiophen-2-yl)thieno[2,3-b]pyridin-3-amine], 3.3 nM.
For `CCCC[S+]([O-])c1sc2nc(-c3nccs3)cc(-c3nccn3CC)c2c1N` (stereo not drawn) [SW 218521, 2-(butylsulfinyl)-4-(1-ethyl-1H-imidazol-2-yl)-6-(thiazol-2-yl)thieno[2,3-b]pyridin-3-amine], the IC50 was 2.2 nM.

The same assay, now with this note: read-out: Enzyme Inhibitor IC50 (nM) at 5 nM 15-PGDH; recombinant human 15-PGDH at 5 nM, in vitro.
Take `CCCC[S@@+]([O-])c1sc2nc(-c3nccs3)cc(-c3cncn3C)c2c1N` (single isomer, unassigned) [(+)-SW 217985]: the half-inhibitory concentration (IC50) is 0.9 nM.
`CCCC[S@+]([O-])c1sc2nc(-c3nccs3)cc(-c3cncn3C)c2c1N` (single isomer, unassigned) [(−)-SW 217986]: the IC50 came to 765 nM.

The assay is the same for the next values; noted with them: recombinant human 15-PGDH at 5 nM.
As to `Nc1c(S(=O)(=O)N2CCCCC2)sc2nc(-c3cccs3)cc(-c3ccccc3)c12` [SW 218400], the “extent of 15-PGDH inhibition (remark)” value is given as “incomplete inhibition”.

Source of the values: patent US20180118756A1, “COMPOSITIONS AND METHODS OF MODULATING SHORT-CHAIN DEHYDROGENASE ACTIVITY” (CASE WESTERN RESERVE UNIVERSITY, priority 2015, published 2018).
